The nature of data set [1]: in vitro. Conditions: human, Caco-2.
For data set [2] the following is noted: mouse, in vivo, sc.
For data set [3], the system named is mdr1a/b (+/+) and mdr1a/b (−/−) mice. Conditions: mouse, in vivo.
Data set [4] relates to P-gp. The data set is described as follows: in vitro. The following applies: human, Caco-2, Papp B–A.

The source of these data is paper PMC3401593 (Journal of Pharmaceutical Sciences, 2009).

Marks after values point to notes of the source that are not given here.

What is called Papp is the rate of passage across a membrane or cell layer, normalised by area and donor concentration. A higher Papp goes with fast passage. `OC[C@@H](O)[C@@H](O)[C@H](O)[C@H](O)CO` [mannitol] gave an apparent permeability (Papp) at 0.2 μCi/mL in data set [1] of 5.21 ×10⁻⁶ cm/s.

The term Papp B→A denotes how fast a substance crosses the layer from the basolateral side. On to `CCC(=O)C(CC(C)N(C)C)(c1ccccc1)c1ccccc1` (centres unmarked) [Methadone, methadone], for which the “Levels in liver and kidney tissues, mdr1a/b (−/−) versus mdr1a/b (+/+) mice” value in data set [2] is on record as “no significant differences”. Also, in data set [3], the “%MPE, P-gp knockout mice versus wild-type” value is “significantly higher”; the “Area Under the Effect Curve (AUEC), mdr1a/b (+/+)” value is on record as 1501.85 ± 246.45 % MPE × min; the “Area Under the Effect Curve (AUEC), mdr1a/b (−/−)” value is reported as 4099.26 ± 488.58 ^a % MPE × min; the “Time of peak %MPE” value amounted to 15 min. Also, in data set [4], the Papp B→A turned out to be 19.4 ± 1.01 ×10⁻⁶ cm/s.

With buprenorphine, in data set [3], the “AUEC Ratio mdr1a/b (−/−)/mdr1a/b (+/+)” value amounted to 1.47 ± 0.3; the “Area Under the Effect Curve (AUEC), mdr1a/b (+/+)” value is on record as 1943.74 ± 326.81 % MPE × min; the “Area Under the Effect Curve (AUEC), mdr1a/b (−/−)” value came to 2854.93 ± 325.27 % MPE × min; the “Time of peak %MPE” value is 45 min.
